Here are results for one substance from patent publication US20240101600A1, “FIBROBLAST GROWTH FACTOR RECEPTOR (FGFR)-TARGETING ANTAGONISTIC SHORT PEPTIDE” (WENZHOU MEDICAL UNIVERSITY, priority 2019, published 2024).

Experiment [1] concerns FGFR1. Put plainly: Flow cytometry binding of FITC-conjugated P48 to MEF-WT and FGFR1-FGFR2-FRS2a knock-out MEF cells. It counts as cell-based. The following applies: FITC-conjugated P48 1, 10, 100, 1000 nM, 30 min. As for the experimental part: (§1) Human embryonic kidney cells HEK-293, fibroblasts MEF-WT and Balb/c 3T3 were inoculated into 6-well plates, respectively. After growing adherently overnight, the cells were pretreated with P48 for 10 min or with AZD4547/PD173074/SSR for 2 h, and incubated with bFGF for 15 min. […] The experimental procedure was as follows: MEF-WT and MEFKO (FGFR1-FGFR2-FRS2a) cells (1×10^6 cells/ml) were inoculated in a 35 mm petri dish. After being adhered to the wall of petri dish overnight, the cells were washed with PBS; FITC-conjugated P48 (1, 10, 100 and 1000 nM) was added, and the cells were incubated in an incubator for 30 min. The cells were immobilized with 1% paraformaldehyde in the dark and washed with PBS. An expression level of the FITC was measured at a fluorescence channel 1 (FL-1) (530 nm), with an excitation wavelength of 488 nm. Data analysis was conducted using CellQuest software (Becton Dickinson).

Experiment [2] addresses FGFR3B (Homo sapiens, UniProt P22607). Put plainly: SPR detection of interaction with FGFR3B. It counts as binding.
Experiment [3] relates to gastric cancer cells SGC-7901. The experiment is described as follows: SGC-7901 transplanted tumor model in BALB/c nude mice. The following applies: intraperitoneal, 32 and 64 mg/kg·d. It counts as in vivo. The procedure: SGC-7901 cells were injected subcutaneously into the back of BALB/c nude mice. After 10 days, the mice were randomly divided into 4 groups, each with 12 mice, and were administered intraperitoneally. An administration group included a model group (normal saline group), an AZD4547 group (20 mg/kg·d), and a P48 group (32 mg/kg·d, 64 mg/kg·d). The length and width of the tumor were measured using a vernier caliper. The tumor volume was calculated using a formula V=0.52×L×W^2. The weights of the mice were recorded every 3 days, and the tumor size was recorded […]. After 28 days, the nude mice were sacrificed for dissection, and tissue samples were taken out for further study. The results are shown in FIG. 6, wherein A represents the weight change of the mice, B represents the volume and size of the tumor, C represents the expression of phosphorylated FLG, FRS2α and ERK1/2 in vivo after P48 treatment, and D represents the expression of Ki67 in vivo after P48 treatment.

The test system of experiment [4] is Hela229 cells. The experiment is described as follows: MTT viability, Hela229 cells. The following applies: 48 h with bFGF. It counts as cell-based. The procedure: (§2) In vitro anti-tumor activity of a short peptide compound P48 Hela229 (1500 cells/100 μl), B16-F10 (1000 cells/100 μl), NCI-H460 (4000 cells/100 μl) and SGC7901 (4000 cells/100 μl) cells were inoculated in 96-well plates. After incubated overnight adherently, the original medium was replaced with a Dulbecco's modified eagle medium (DMEM) containing 0.1% fetal bovine serum (FBS) or a Roswell Park Memorial Institute 1640 (RPMI-1640) medium containing 0.1% FBS, and culture was continued for 24 h. A mixture of P48 and bFGF, or bFGF alone were added into corresponding wells, and incubated for 48 h; an MTT solution (5 mg/mL) prepared by PBS was added to the cells in each well at 37° C., and treated for 4 h. The MTT was removed by aspiration, 150 μL of DMSO was added to each well, shaking was conducted for 10 min, and an optical density (OD) value was quantified with a microplate reader (SpectraMax M2/M2e, Molecular Devices, Sunnyvale, USA) at a wavelength of 490 nm. The percentage of drug growth inhibition rate was calculated by comparing with the bFGF group. […] The experimental procedure was as follows: 10% FBS-containing medium (500 μl) was added to a lower surface of a transwell insertion chamber, the cells together with the drug were inoculated into an upper chamber, and cultured with a serum-free medium (200 μl). […]

The target in experiment [5] is FGFR1 (Mus musculus, UniProt P16092). The experiment is described as follows: Western blot of FGFR1 signaling pathway in melanoma B16-F10. It counts as cell-based. Also on record: endogenous in cells. The note with it: bFGF stimulation. As for the experimental part: (§3) Cervical cancer cells Hela229, melanoma B16-F10, lung cancer cells NCI-H460, gastric cancer cells SGC-7901 and MGC-803 were inoculated into 6-well plates, respectively. After growing adherently overnight, the cells were pretreated with P48 for 10 min or with AZD4547/SSR for 2 h, and incubated with bFGF for 15 min or with KGF for 20 min.

In experiment [6] the target is FGFR2B (Homo sapiens, UniProt P21802). Put plainly: SPR detection of interaction with FGFR2B. It counts as binding.
In experiment [7] the target is T1, FGFR1 (Homo sapiens, UniProt P11362). The experiment is described as follows: Western blot of FGFR1 signaling pathway in lung cancer cells NCI-H460. The following applies: bFGF stimulation. Set-up: endogenous in cells; host or cells: Hela229; NCI-H460; SGC-7901; MGC-803. It counts as cell-based. The procedure: as §3
For experiment [8], the target named is T1, FGFR1. Put plainly: Western blot of bFGF-induced FGFR1 activation in HEK-293 cells. It counts as cell-based. Also on record: endogenous in cells; host or cells: HEK-293. The note with it: P48 pretreatment 10 min, bFGF 15 min. The procedure:
as §1

The test system of experiment [9] is NCI-H460 cells. The experiment is described as follows: MTT viability, NCI-H460 cells. It counts as cell-based. The note with it: 48 h with bFGF. The procedure:
as §2

In experiment [10] the test system is gastric cancer cells SGC-7901. Put plainly: Transwell migration of SGC-7901 cells. It counts as cell-based. The following applies: 24 h. As for the experimental part: as §2
Experiment [11] concerns the target T2, EGFR (Homo sapiens, UniProt P00533, DEL746-750).
T2 construct: endogenous in cells; host or cells: PC-9
The experiment is described as follows: Western blot of EGFR and ERK1/2 in PC-9 cells under EGF stimulation. It counts as cell-based. The note with it: EGF 10 min.

Where no end group is shown, it is not given here.

T1 sequence (P11362 22-822): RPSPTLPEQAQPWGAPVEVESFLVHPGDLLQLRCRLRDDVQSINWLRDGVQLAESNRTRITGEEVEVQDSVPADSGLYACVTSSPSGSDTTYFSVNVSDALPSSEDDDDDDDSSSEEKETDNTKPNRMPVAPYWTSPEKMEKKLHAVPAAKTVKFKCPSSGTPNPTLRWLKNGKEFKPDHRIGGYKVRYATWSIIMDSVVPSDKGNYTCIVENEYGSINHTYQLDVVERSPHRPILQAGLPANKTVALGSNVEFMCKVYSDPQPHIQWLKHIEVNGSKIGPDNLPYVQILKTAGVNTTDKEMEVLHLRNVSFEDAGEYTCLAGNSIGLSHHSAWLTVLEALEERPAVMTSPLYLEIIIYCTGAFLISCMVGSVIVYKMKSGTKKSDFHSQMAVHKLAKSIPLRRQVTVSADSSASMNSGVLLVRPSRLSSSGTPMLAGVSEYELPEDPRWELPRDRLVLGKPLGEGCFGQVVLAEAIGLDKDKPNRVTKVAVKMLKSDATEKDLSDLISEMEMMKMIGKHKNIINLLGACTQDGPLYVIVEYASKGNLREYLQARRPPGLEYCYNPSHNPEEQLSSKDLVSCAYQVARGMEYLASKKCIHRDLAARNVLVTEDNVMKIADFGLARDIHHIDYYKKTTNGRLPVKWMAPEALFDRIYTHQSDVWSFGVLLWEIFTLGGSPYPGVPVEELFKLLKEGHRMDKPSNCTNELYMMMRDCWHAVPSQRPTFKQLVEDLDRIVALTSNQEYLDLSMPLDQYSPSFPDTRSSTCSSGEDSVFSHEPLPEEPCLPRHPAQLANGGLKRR
FGFR3B, sequence (P22607 23-808 isoform P22607-2 limits assumed): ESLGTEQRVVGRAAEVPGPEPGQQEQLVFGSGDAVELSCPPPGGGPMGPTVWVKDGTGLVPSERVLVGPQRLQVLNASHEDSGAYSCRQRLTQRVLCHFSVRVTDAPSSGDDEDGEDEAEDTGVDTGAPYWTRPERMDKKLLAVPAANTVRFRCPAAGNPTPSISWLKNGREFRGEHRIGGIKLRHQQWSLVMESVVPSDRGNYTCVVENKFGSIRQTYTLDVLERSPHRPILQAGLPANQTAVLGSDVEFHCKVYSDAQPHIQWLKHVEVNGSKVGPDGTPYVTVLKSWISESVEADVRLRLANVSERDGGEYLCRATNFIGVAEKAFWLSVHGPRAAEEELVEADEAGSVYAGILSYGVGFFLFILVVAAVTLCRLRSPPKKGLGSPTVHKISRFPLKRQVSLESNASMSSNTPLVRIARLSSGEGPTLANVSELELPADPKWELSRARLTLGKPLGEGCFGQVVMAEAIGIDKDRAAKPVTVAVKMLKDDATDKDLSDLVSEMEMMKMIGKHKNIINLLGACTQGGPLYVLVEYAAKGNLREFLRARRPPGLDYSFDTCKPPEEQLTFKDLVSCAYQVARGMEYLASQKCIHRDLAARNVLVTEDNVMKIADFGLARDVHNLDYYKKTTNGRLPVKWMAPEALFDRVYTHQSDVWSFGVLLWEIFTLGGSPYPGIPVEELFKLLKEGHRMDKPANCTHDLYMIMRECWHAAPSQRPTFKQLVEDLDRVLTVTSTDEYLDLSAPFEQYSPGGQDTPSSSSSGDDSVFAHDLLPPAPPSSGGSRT
FGFR2B, sequence (P21802 22-822 isoform P21802-3 limits assumed): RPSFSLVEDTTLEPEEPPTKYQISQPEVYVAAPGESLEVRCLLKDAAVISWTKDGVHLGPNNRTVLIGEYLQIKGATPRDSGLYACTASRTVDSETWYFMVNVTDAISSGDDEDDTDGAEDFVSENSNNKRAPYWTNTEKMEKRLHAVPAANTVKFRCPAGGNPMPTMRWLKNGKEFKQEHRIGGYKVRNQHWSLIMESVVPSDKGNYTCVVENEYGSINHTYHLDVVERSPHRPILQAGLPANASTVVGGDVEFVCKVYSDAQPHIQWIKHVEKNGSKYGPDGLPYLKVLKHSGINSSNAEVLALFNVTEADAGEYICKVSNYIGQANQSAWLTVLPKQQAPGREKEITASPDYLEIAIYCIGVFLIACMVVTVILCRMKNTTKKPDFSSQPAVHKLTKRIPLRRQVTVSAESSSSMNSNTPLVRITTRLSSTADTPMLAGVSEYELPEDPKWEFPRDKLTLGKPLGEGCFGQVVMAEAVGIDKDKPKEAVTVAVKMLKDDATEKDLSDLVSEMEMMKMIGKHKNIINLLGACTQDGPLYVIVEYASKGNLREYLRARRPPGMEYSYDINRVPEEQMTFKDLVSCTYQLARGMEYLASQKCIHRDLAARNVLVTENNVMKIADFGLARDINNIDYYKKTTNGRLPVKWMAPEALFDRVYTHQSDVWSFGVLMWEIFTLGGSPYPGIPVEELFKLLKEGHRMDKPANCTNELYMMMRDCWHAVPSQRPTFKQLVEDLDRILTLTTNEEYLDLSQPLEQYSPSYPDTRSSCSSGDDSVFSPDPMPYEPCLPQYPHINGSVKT
FGFR1 (Mus musculus, UniProt P16092), sequence (P16092 22-822): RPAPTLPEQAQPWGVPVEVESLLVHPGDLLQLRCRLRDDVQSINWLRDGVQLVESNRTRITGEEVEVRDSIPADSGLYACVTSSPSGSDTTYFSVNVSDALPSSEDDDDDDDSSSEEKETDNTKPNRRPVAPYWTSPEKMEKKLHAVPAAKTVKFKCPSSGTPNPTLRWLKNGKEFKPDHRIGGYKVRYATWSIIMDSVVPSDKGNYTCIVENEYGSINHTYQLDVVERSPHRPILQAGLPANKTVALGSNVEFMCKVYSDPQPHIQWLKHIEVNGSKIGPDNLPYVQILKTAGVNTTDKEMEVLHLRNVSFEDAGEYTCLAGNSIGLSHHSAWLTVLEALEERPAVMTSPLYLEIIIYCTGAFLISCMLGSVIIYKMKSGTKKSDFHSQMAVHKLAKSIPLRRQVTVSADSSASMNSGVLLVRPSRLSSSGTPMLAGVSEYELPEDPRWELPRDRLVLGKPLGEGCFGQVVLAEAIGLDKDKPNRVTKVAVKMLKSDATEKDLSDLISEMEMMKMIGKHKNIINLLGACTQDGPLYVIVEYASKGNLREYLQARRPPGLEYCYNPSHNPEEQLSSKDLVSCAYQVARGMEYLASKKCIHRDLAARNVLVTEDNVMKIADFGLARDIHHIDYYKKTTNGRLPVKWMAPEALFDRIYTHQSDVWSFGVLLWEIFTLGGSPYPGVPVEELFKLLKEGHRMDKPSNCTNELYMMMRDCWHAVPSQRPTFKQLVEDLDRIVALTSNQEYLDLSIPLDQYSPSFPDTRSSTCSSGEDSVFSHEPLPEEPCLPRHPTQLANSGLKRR

In the case of “SPPRYPGGGS-NH2 [P48, Ser-Pro-Pro-Arg-Tyr-Pro-Gly-Gly-Gly-Ser-NH2]”, the “binding to wild-type versus FGFR1-FGFR2-FRS2a knock-out MEF cells” value in experiment [1] is given as “only has a binding effect on the wild-type MEF cells”. Also, the “binding to FGFR3B” value in [2] is “can be bound”. In [3] (28 days), the “inhibition of FGFR1 signaling pathways in tumors (phosphorylated FLG, FRS2a, ERK1/2)” value is “desirable inhibitory effect”. For the same substance, the “inhibition of tumor growth” value in experiment [3] (28 days) is recorded as “can significantly inhibit the growth of gastric cancer cells SGC-7901”. In addition, in experiment [3] (compared with control group), the “inhibition of Ki67 expression (immunohistochemistry)” value is listed as “can inhibit the expression of Ki67 in a concentration-dependent manner”. Further, the “inhibition of cancer cell viability” value in experiment [4] and in [9] was “can significantly inhibit the viability of cancer cells” each time. Moreover, the “inhibition of FGFR1 signaling pathway” value in experiment [5] is “can inhibit the FGFR1 signaling pathway of cervical cancer, melanoma, lung cancer and gastric cancer in a concentration-dependent manner”; in [7], “can inhibit the FGFR1 signaling pathway of cervical cancer, melanoma, lung cancer and gastric cancer in a concentration-dependent manner”. Also, the “binding to FGFR2B” value in [6] is reported as “can be bound”. Also, the “inhibition of FGFR1 activation induced by bFGF” value in experiment [8] is reported as “can inhibit activation of FGFR1 induced by bFGF in a concentration-dependent manner”. In experiment [10], the “inhibition of cell migration” value is “can inhibit cell migration in a concentration-dependent manner”. Besides, the “effect on EGF stimulation (phosphorylated EGFR and ERK1/2)” value in experiment [11] is “has no effect”.
